Data on 42 compounds can be found in patent US20130116241A1, “NOVEL INHIBITOR COMPOUNDS OF PHOSPHODIESTERASE TYPE 10A” (AbbVie Inc., priority 2011, published 2013).

Where a name gives a salt, the structure may show the parent alone. Where only a bound is given, the exact number is not on record here.

The test system of one test is rats.
Assay: not given
Particulars: cited from earlier work.
As for `COc1ccc(Cc2nccc3cc(OC)c(OC)cc23)cc1OC` [Papaverine, papaverine], the “hyperactivity induced by PCP” value was “reduced hyperactivity”.

The test system of another test is rats.
Assay: not given
Particulars: compound alone; cited from earlier work.
Turning to `COc1ccc(Cc2nccc3cc(OC)c(OC)cc23)cc1OC` [Papaverine, papaverine], the “catalepsy on its own” value is on record as “did not cause catalepsy on its own”.

Still in this test, the particulars now being: with haloperidol; cited from earlier work.
Regarding `COc1ccc(Cc2nccc3cc(OC)c(OC)cc23)cc1OC` [Papaverine, papaverine], the “cataleptic effect of the D2 receptor antagonist haloperidol” value is recorded as “potentiated the cataleptic effect”.

The test system of a further test is rats.
Assay: not given
Particulars: rat, in vivo; cited from earlier work.
Take `COc1ccc(Cc2nccc3cc(OC)c(OC)cc23)cc1OC` [Papaverine, papaverine]: the “reduction of amphetamine-induced hyperactivity” value was “insignificant”.

The target in the next test is human PDE10A (UniProt Q9Y233). Briefly: Measurement of PDE activity (recombinant enzyme, HTRF cAMP kit). The class given is biochemical. Particulars: Table 1, substrate 20 nM for PDE10, 60 minutes at 29 C. The method in brief: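 HTRF detection of cAMP left after hydrolysis, expressed as percent of uninhibited control to derive IC50. Reaction: serially diluted inhibitor mixed with recombinant enzyme, started with 20 nM cAMP, 60 min at 29 °C in Tris-HCl pH 7.5 buffer containing MgCl2 and BSA.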
human PDE10A, sequence (Q9Y233 290-1055 limits assumed): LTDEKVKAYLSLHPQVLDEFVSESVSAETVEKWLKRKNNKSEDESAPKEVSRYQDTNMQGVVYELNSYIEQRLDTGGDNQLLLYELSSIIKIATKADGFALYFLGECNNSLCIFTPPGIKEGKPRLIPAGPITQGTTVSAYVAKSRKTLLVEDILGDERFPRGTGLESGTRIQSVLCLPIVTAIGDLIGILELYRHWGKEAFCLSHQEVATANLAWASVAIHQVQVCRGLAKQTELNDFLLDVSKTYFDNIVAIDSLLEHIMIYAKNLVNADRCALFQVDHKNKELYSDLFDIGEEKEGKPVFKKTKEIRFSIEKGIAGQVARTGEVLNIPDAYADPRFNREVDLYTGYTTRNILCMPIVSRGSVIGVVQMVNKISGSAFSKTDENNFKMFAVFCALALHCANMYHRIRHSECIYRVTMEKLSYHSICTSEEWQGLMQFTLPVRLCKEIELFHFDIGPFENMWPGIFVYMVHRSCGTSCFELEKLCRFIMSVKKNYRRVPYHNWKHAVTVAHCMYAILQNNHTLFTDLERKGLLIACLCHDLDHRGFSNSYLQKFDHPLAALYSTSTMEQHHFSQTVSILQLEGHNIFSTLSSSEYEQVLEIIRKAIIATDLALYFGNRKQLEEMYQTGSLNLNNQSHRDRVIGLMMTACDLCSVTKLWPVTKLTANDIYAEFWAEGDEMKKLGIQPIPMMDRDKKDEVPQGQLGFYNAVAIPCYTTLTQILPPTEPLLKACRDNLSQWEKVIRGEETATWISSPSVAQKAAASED
On the technique in general: In TR-FRET formats the signal depends on donor and acceptor labels being close together.
In the case of `O=c1c2c(C3=CCNCC3)cccc2cnn1CCc1cn2ccccc2n1` [compound 375, hydrochloride], the IC50 is below 100 nM.

The same test, now with this note: Table 1, substrate 20 nM for PDE10, 60 minutes at 29 C, read-out: IC50.
Take `O=c1c2c(C3CCOCC3)cccc2cnn1CCc1cn2ccccc2n1` [compound 355, 2-[2-(imidazo[1,2-a]pyridin-2-yl)ethyl]-8-(tetrahydro-2H-pyran-4-yl)phthalazin-1(2H)-one]: the IC50 was below 100 nM.
Same read-out and setting: next, `O=c1c2c(-c3ccco3)cccc2cnn1CCc1cn2ccccc2n1` [compound 358, hydrochloride]: 100 to 200 nM; `Cn1cc(-c2cccc3cnn(CCc4cn5ccccc5n4)c(=O)c23)cn1` [compound 359, hydrochloride]: below 100 nM.
On to `O=c1c2c(C3CCNCC3)cccc2cnn1CCc1cn2c(n1)CCCC2` [compound 365, hydrochloride], for which the IC50 is below 100 nM.
Still for that read-out and setting: the value for `NCC1CC(Cl)CN1c1cccc2cnn(CCc3cn4ccccc4n3)c(=O)c12` (stereo not drawn) [compound 366, trifluoroacetate] was below 100 nM; that for `O=c1c2c(-c3ccncc3)cccc2c(-c2ccncc2)nn1CCc1cn2ccccc2n1` [compound 367, 2-[2-(imidazo[1,2-a]pyridin-2-yl)ethyl]-4,8-di(pyridin-4-yl)phthalazin-1(2H)-one] was below 100 nM; that for `O=c1c2c(-c3ccncc3)cccc2c(Br)nn1CCc1cn2ccccc2n1` [compound 370, 4-bromo-2-[2-(imidazo[1,2-a]pyridin-2-yl)ethyl]-8-(pyridin-4-yl)phthalazin-1(2H)-one] was below 100 nM.
The same measure, in the same setting: the value for `O=c1c2c(N3CC4CCOC4C3)cccc2cnn1CCc1cn2ccccc2n1` (stereo not drawn) [compound 374, hydrochloride] was 200 to 500 nM; that for `O=c1c2c(N[C@H]3CCOC3)cccc2cnn1CCc1cn2ccccc2n1` [compound 376, 2-[2-(imidazo[1,2-a]pyridin-2-yl)ethyl]-8-[(3S)-tetrahydrofuran-3-ylamino]phthalazin-1(2H)-one] was below 100 nM.
Regarding `O=c1c2c(N[C@@H]3CCOC3)cccc2cnn1CCc1cn2ccccc2n1` [compound 377, 2-[2-(imidazo[1,2-a]pyridin-2-yl)ethyl]-8-[(3R)-tetrahydrofuran-3-ylamino]phthalazin-1(2H)-one], the IC50 is below 100 nM.
The same measure, in the same setting: next, `O=c1c2c(OCC3COC(CO)CO3)cccc2cnn1CCc1cn2ccccc2n1` (stereo not drawn) [compound 378, 8-{[5-(hydroxymethyl)-1,4-dioxan-2-yl]methoxy}-2-[2-(imidazo[1,2-a]pyridin-2-yl)ethyl]phthalazin-1(2H)-one]: 200 to 500 nM; `O=c1c2c(OCc3ccncc3)cccc2cnn1CCc1cn2ccccc2n1` [compound 380, 2-[2-(imidazo[1,2-a]pyridin-2-yl)ethyl]-8-(pyridin-4-ylmethoxy)phthalazin-1(2H)-one]: 100 to 200 nM.
Same read-out and setting: next, `O=c1c2c(Oc3cccnc3)cccc2cnn1CCc1cn2ccccc2n1` [compound 382, 2-[2-(imidazo[1,2-a]pyridin-2-yl)ethyl]-8-(pyridin-3-yloxy)phthalazin-1(2H)-one]: below 100 nM; `O=c1c2c(NCC3COC3)cccc2cnn1CCc1cn2ccccc2n1` [compound 383, 2-[2-(imidazo[1,2-a]pyridin-2-yl)ethyl]-8-[(oxetan-3-ylmethyl)amino]phthalazin-1(2H)-one]: below 100 nM.
Consider `O=c1c2c(NC3CCOCC3)cccc2cnn1CCc1cn2ccccc2n1` [compound 384, 2-[2-(imidazo[1,2-a]pyridin-2-yl)ethyl]-8-(tetrahydro-2H-pyran-4-ylamino)phthalazin-1(2H)-one], for which the 50% inhibitory concentration (IC50) lay within 100 to 200 nM.
For `CN1CC(Nc2cccc3cnn(CCc4cn5ccccc5n4)c(=O)c23)C1` [compound 385, 2-[2-(imidazo[1,2-a]pyridin-2-yl)ethyl]-8-[(1-methylazetidin-3-yl)amino]phthalazin-1(2H)-one], the concentration for half-maximal inhibition (IC50) was in the range of 200 to 500 nM.
In the case of `CN(c1cccc2cnn(CCc3cn4ccccc4n3)c(=O)c12)C1COC1` [compound 387, 2-[2-(imidazo[1,2-a]pyridin-2-yl)ethyl]-8-[methyl(oxetan-3-yl)amino]phthalazin-1(2H)-one], the half-inhibitory concentration (IC50) was below 100 nM.
`O=c1c2c(NC3CCNCC3)cccc2cnn1CCc1cn2ccccc2n1` [compound 388, dihydrochloride]: the half-maximal inhibitory concentration (IC50) is below 100 nM.
Same read-out and setting: next, `CC(=O)N1CCCC(Nc2cccc3cnn(CCc4cn5ccccc5n4)c(=O)c23)C1` (stereo not drawn) [compound 389, hydrochloride]: 100 to 200 nM.
As to `CC(=O)N1CCC(Nc2cccc3cnn(CCc4cn5ccccc5n4)c(=O)c23)CC1` [compound 390, 8-[(1-acetylpiperidin-4-yl)amino]-2-[2-(imidazo[1,2-a]pyridin-2-yl)ethyl]phthalazin-1(2H)-one], the IC50 was 200 to 500 nM.
In the case of `O=c1c2c(NC3CCOC3)cccc2cnn1CCc1cn2ccccc2n1` (stereo not drawn) [compound 391, 2-[2-(imidazo[1,2-a]pyridin-2-yl)ethyl]-8-(tetrahydrofuran-3-ylamino)phthalazin-1(2H)-one], the IC50 is below 100 nM.
Same read-out and setting: the value for `O=c1c2c(NC3CCCOC3)cccc2cnn1CCc1cn2ccccc2n1` (stereo not drawn) [compound 392, hydrochloride] was below 100 nM; that for `O=c1c2c(NC3CCCNC3)cccc2cnn1CCc1cn2ccccc2n1` (stereo not drawn) [compound 393, dihydrochloride] was below 100 nM; that for `CN(CC1(C)COC1)c1cccc2cnn(CCc3cn4ccccc4n3)c(=O)c12` [compound 394, 2-[2-(imidazo[1,2-a]pyridin-2-yl)ethyl]-8-{methyl[(3-methyloxetan-3-yl)methyl]amino}phthalazin-1(2H)-one] was 200 to 500 nM.
Still for that read-out and setting: next, `O=c1c2c(NC3COC3)cccc2cnn1CCc1cn2ccccc2n1` [compound 395, 2-[2-(imidazo[1,2-a]pyridin-2-yl)ethyl]-8-(oxetan-3-ylamino)phthalazin-1(2H)-one]: below 100 nM.
For the compound `O=c1c2cccc(N3CCOCC3)c2cnn1CCc1ccc2ccccc2n1` [compound 397, hydrochloride], the half-inhibitory concentration (IC50) was below 100 nM.
In the case of `O=c1c2cccc(-c3ccncc3)c2cnn1CCc1nc2ccccc2[nH]1` [compound 398, 2-[2-(1H-benzimidazol-2-yl)ethyl]-5-(pyridin-4-yl)phthalazin-1(2H)-one], the IC50 was 100 to 200 nM.
For the compound `O=c1c2ccccc2c(-c2cccnc2)nn1CCc1ccc2ccccc2n1` [compound 399, 4-(pyridin-3-yl)-2-[2-(quinolin-2-yl)ethyl]phthalazin-1(2H)-one], the IC50 is below 100 nM.
Take `O=c1c2cccc(-c3ccncc3)c2cnn1CCc1cn2ccccc2n1` [compound 401, 2-[2-(imidazo[1,2-a]pyridin-2-yl)ethyl]-5-(pyridin-4-yl)phthalazin-1(2H)-one]: the IC50 is below 100 nM.
On the same count and under the same terms, the value for `O=c1c2cccc(-c3cccnc3)c2cnn1CCc1ccc2ccccc2n1` [compound 402, 5-(pyridin-3-yl)-2-[2-(quinolin-2-yl)ethyl]phthalazin-1(2H)-one] was below 100 nM; that for `CC1(CNc2cccc3cnn(CCc4cn5ccccc5n4)c(=O)c23)COC1` [compound 403] was below 100 nM; that for `O=c1c2c(-c3ccncc3)ccnc2cnn1CCc1ccc2ccccc2n1` [compound 404, 4-(pyridin-4-yl)-6-[2-(quinolin-2-yl)ethyl]pyrido[2,3-d]pyridazin-5(6H)-one] was below 100 nM.
On the same count and under the same terms, the value for `O=c1c2c(N3CCOCC3)ccnc2cnn1CCc1ccc2ccccc2n1` [compound 405, 4-(morpholin-4-yl)-6-[2-(quinolin-2-yl)ethyl]pyrido[2,3-d]pyridazin-5(6H)-one] was below 100 nM.
On the same count and under the same terms, next, `O=c1c2c(NC3COC3)ccnc2cnn1CCc1ccc2ccccc2n1` [compound 406, 4-(oxetan-3-ylamino)-6-[2-(quinolin-2-yl)ethyl]pyrido[2,3-d]pyridazin-5(6H)-one]: below 100 nM; `COc1ccc2nc(/C=C/n3ccc4scc(-c5ccncc5)c4c3=O)ccc2c1` [compound 410]: below 100 nM.
As for `O=c1c2c(-c3ccncc3)cccc2ccn1/C=C/c1ncc2ccccc2n1` [compound 411, 8-(pyridin-4-yl)-2-[(E)-2-(quinazolin-2-yl)ethenyl]isoquinolin-1(2H)-one], the IC50 fell in the range of 100 to 200 nM.
The same measure, in the same setting: next, `O=c1c2c(-c3ccncc3)csc2ccn1/C=C/c1ccc2cc(Cl)ccc2n1` [compound 412, 5-[(E)-2-(6-chloroquinolin-2-yl)ethenyl]-3-(pyridin-4-yl)thieno[3,2-c]pyridin-4(5H)-one]: below 100 nM.
With `Cc1cc2ccccc2nc1/C=C/n1ccc2scc(-c3ccncc3)c2c1=O` [compound 413, 5-[(E)-2-(3-methylquinolin-2-yl)ethenyl]-3-(pyridin-4-yl)thieno[3,2-c]pyridin-4(5H)-one], the 50% inhibitory concentration (IC50) was below 100 nM.
In the case of `O=c1c2c(-c3ccncc3)csc2ccn1/C=C/c1nc2ccccc2s1` [compound 415, 5-[(E)-2-(1,3-benzothiazol-2-yl)ethenyl]-3-(pyridin-4-yl)thieno[3,2-c]pyridin-4(5H)-one], the half-maximal inhibitory concentration (IC50) was below 100 nM.
Consider `O=c1c2c(-c3ccncc3)csc2ccn1/C=C/c1ccc2ccccc2n1` [compound 416, 3-(pyridin-4-yl)-5-[(E)-2-(quinolin-2-yl)ethenyl]thieno[3,2-c]pyridin-4(5H)-one], for which the IC50 is below 100 nM.

In general, IC50 refers to the concentration that inhibits the measured activity by half.
